Data: US12226490B2, “Anti-ROR1 antibody conjugates, compositions comprising anti ROR1 antibody conjugates, and methods of making and using anti-ROR1 antibody conjugates preliminary class” (Sutro Biopharma, Inc., priority 2022, dated 2025)
One block for each molecule: values may come before it.

Legend:
[1] = tested on: ROR1-positive Ntera-2 cells; experiment: Induction of immunogenic cell death markers (calreticulin by FACS, HMGB1 by ELISA); type: cell-based, human; settings: 3 days treatment
Procedure: ROR1-positive Ntera-2 cells were treated with Conjugate 46 or exatecan for 3 days. Calreticulin on the cell surface was measured by FACS and HMGB1 in the cell culture medium were measured by ELISA. […] FIG. 20A and FIG. 20B illustrate calreticulin expression and HMGB1 release of Ntera-2 cells in the presence of Conjugate 46 or exatecan compared to the un-conjugated antibody and an isotype control of Conjugate 46.

ROR1 negative MCF7 cells = experiment: In vitro cell killing of ROR1 ADCs, ROR1 negative cells (Cell Titer-Glo, 120 hours); type: cell-based, human; settings: Table 13
Source text: (§1) Ntera-2, MDA-MB-231, MCF7, HCT116 and Mino cells were obtained from ATCC. HCT116-hRor1-D02 clone was generated by transfecting HCT116 cells with a plasmid containing human Ror1 cDNA sequence and selected for highest stable expression of hRor1 on the cell surface. MDA-MB-231, MCF7, HCT116 and HCT116-Ror1 cell were maintained in Ham's F-12 high glucose DMEM (50-50) (Cellgro-Mediatech; Manassas, VA) supplemented with 10% heat-inactivated fetal bovine serum (Hyclone; Thermo Scientific; Waltham, MA), 1% Penicillin/Streptomycin (Cellgro-Mediatech; Manassas, VA) and 2 mmol/L-glutamax (Life Technology; Carlsbad, CA). Mino cells were maintained in RPMI-1640 medium (Cellgro-Mediatech; Manassas, VA) supplemented with 20% heat-inactivated fetal bovine serum (Hyclone; Thermo Scientific; Waltham, MA), 1% Penicillin/Streptomycin (Cellgro-Mediatech; Manassas, VA) and 2 mmol/L-glutamax (Life Technology; Carlsbad, CA).
(§2) Anti-ROR1 antibody was conjugated to different linker-warheads described herein at different DARs and the cell killing activity of the ADCs were evaluated on ROR1 positive Ntera-2 cell and ROR1 negative MCF7 cells.
(§3) Ntera-2 or MCF7 cell at 625 cells/25 μL were seeded in a 384-well flat bottom white polystyrene plate one day before the assay start. ADCs were formulated at 2× starting concentration. Filter sterilized samples were serial diluted (1:3) under sterile conditions and added onto cells in triplicates. Plates were cultured at 37° C. in a CO2 incubator for 120 hours. […] Relative luminescence was measured on an ENVISION® plate reader (Perkin-Elmer; Waltham, MA). Relative luminescence readings were converted to % viability using untreated cells as controls. […]
(§4) To evaluate if the cell killing activity of anti-ROR1 ADCs is dependent on antibody binding to ROR1 expressed on cell surface, the same linker-warheads (LP3, LP4) were conjugated to an anti-GFP antibody and the cell killing of the anti-ROR1 and anti-GFP ADCs were evaluated in cell killing assays on ROR1 positive Ntera-2 cell and ROR1 negative MCF7 cells.

[2] = tested on: ROR1-positive Ntera-2 cells co-cultured with PMBCS; experiment: Ntera-2 / PBMC co-culture: target cell killing and monocyte activation (FACS); type: cell-based, human
Procedure: ROR1-positive Ntera-2 cells were co-cultured with PMBCS at E:T=[…] and treated with Conjugate 46 or exatecan for 3 days. Live target cell count and monocyte activation were measured by FACS. […] FIG. 21A and FIG. 21B are graphs showing the percent of live target cells and monocyte activation in Ntera-2 cells following treatment with Conjugate 46 or exatecan compared to the un-conjugated antibody and an isotype control of Conjugate 46. […] Unconjugated anti-ROR1 antibody or a non-targeted ADC had no activity. […] Viability and calreticulin surface expression were measured and presented as a percentage compared to untreated cells.

[3] = tested on: ROR1 positive Ntera-2 cell; experiment: In vitro cell killing of ROR1 ADCs, ROR1 positive cells (Cell Titer-Glo, 120 hours); type: cell-based, human; settings: Table 13
Source text: as §1, §2, §3, §4

TNBC PDX tumors = experiment: TNBC PDX models, single agent or combination with olaparib; type: in vivo, athymic nude Fox1^nu mice; settings: CTG-0437, CTG-1017, and CTG-2055; olaparib p.o. 50 mg/kg qd×28
Source text: The activity of Conjugate 46 as a single agent or in combination with the PARP inhibitor olaparib was additionally assessed in TNBC PDX models. Briefly, PDX tumors, spanning varying levels of ROR1 expression and sensitivity to olaparib, were passaged in athymic nude Fox1^nu mice before being processed into tumor fragments for subcutaneous implantation into the hind flank of mice for study initiation. When tumors reached a volume of around 150-300 mm^3, the mice were randomized and enrolled into the study. Tumor-bearing mice were administered up to three weekly doses (qw×3) of Conjugate 46 i.v. at 5 mg/kg and up to twenty-eight daily doses (qd×28) of olaparib p.o. at 50 mg/kg.
Combination treatment with Conjugate 46 and olaparib (50 mg/kg, qd×28) is conducted using a 2 mg/kg, qw×3 dosing regimen for Conjugate 46. The combination therapy is assessed in six TNBC PDX models as described in Example 26.

[4] = biological target: T1, hROR1 (ROR1-extracellular domain) (Homo sapiens, UniProt Q01973); experiment: Biacore off-rate and kinetic analysis, ROR1 extracellular domain; type: binding; settings: Sample ROR1 ECD, SPR
T1 construct: the ROR1-extracellular domain (hROR1); purchased Acro Biosystems
Procedure: Anti-Fc polyclonal antibodies were immobilized onto a CM5 chip (GE Life Sciences) using amine coupling chemistry (from Amine Coupling Kit, GE Life Sciences). The immobilization steps were carried out at a flow rate of 25 μL/min in 1×HBS-EP+ buffer (GE Life Sciences; 10× Stock diluted before use). The sensor surfaces were activated for 7 min with a mixture of NHS (0.05 M) and EDC (0.2 M). The Anti-Fc antibodies were injected over all 4 flow cells at a concentration of 25 ug/ml in 10 mM sodium acetate, pH 4.5, for 7 min. Ethanolamine (1 M, pH 8.5) was injected for 7 min to block any remaining activated groups. […]
(§5) The data was fit with the Biacore T200 Evaluation software, using a 1-1 Langmuir binding model. KD (affinity, nM) was determined as a ratio of the kinetic rate constants calculated from the fits of the association and dissociation phases.
For anti-CD3-LC-containing IgGs that had detectable ROR1-binding in ELISA (1944-A07 and 1987-C05 variants), those antibodies were further tested for binding by surface plasmon resonance (SPR). Binding kinetics were assessed to the ROR1-frizzled domain (hROR1-Fz) or the ROR1-extracellular domain (hROR1) for 1944-A07 and 1987-C05 variants, respectively. […] KD (affinity, nM) was determined as a ratio of the kinetic rate constants calculated from the fits of the association and dissociation phases.

[5] = Differential scanning fluorimetry (protein thermal shift; TM1 Fc, TM2 Fab); type: physicochemical; settings: melting temperature of the Fab domain; Table 11
Procedure: A protein thermal shift assay was carried out by mixing the protein to be assayed with an environmentally sensitive dye (SYPRO Orange, Life Technologies Cat #S-6650) in a phosphate buffered solution (PBS), and monitoring the fluorescence of the mixture in real time as it underwent controlled thermal denaturation. Protein solutions between 0.2-2 mg/mL were mixed at a 1-1 volumetric ratio with a 1-500 PBS-diluted solution of SYPRO Orange (SYPRO Orange stock dye is 5000× in DMSO). 10 μL aliquots of the protein-dye mixture were dispensed in quadruplicate in a 384-well microplate (Bio-Rad Cat #MSP-3852), and the plate was sealed with an optically clear sealing film (Bio-Rad Cat #MSB-1001) and placed in a 384-well plate real-time thermocycler (Bio-Rad CFX384 Real Time System). The protein-dye mixture was heated from 25° C. to 95° C., at increments of 0.1° C. per cycle (˜1.5° C. per minute), allowing 3 seconds of equilibration at each temperature before taking a fluorescence measurement. At the end of the experiment, the transition melting temperatures (TM1 and TM2) were determined using the Bio-Rad CFX manager software. TM1 represents the melting temperature of the Fc domain. TM2 represents the melting temperature of the Fab domain.
For the thermal stability of an antibody, the first melting peak (Tm1) coincides with the unfolding of the CH2 domain (FC stability), while the second melting peak (Tm2) occurs upon unfolding of the Fab domain.

[6] = biological target: T2, HCT116 cells overexpressing human ROR1 (HCT116-hRor1) (Homo sapiens, UniProt Q01973); experiment: FACS cell binding, affinity maturation leads; settings: Table 11 (SP34 light chain)
T2 construct: expressed in transfected cells; host or cells: HCT116
Source text: as §1
Variants with expression levels >250 nM were tested in a fluorescence-activated cell sorting (FACS) cell-binding assay. […]
A mix of ROR1 positive and negative cells was prepared as follows. […] Cells were then washed 2× with FACS buffer and fixed for 10 minutes in 200 μl PBS with 2% PFA prior to fluorescence detection. […] Mean Fluorescence Intensity of ROR1 antibody binding was analyzed using FlowJo® software (Tree Star, Inc.).

human ROR1-Fz = biological target: T3, human ROR1-Fz (Homo sapiens, UniProt Q01973); experiment: Biacore off-rate and kinetic analysis, ROR1 frizzled domain; type: binding; settings: Table 11 (SP34 light chain)
T3 construct: Frizzled (Fz, residues 165-305); HIS6 (C); purchased Acro Biosystems; host or cells: HEK293
Procedure: Anti-Fc polyclonal antibodies were immobilized onto a CM5 chip (GE Life Sciences) using amine coupling chemistry (from Amine Coupling Kit, GE Life Sciences). The immobilization steps were carried out at a flow rate of 25 μL/min in 1×HBS-EP+ buffer (GE Life Sciences; 10× Stock diluted before use). The sensor surfaces were activated for 7 min with a mixture of NHS (0.05 M) and EDC (0.2 M). The Anti-Fc antibodies were injected over all 4 flow cells at a concentration of 25 ug/ml in 10 mM sodium acetate, pH 4.5, for 7 min. Ethanolamine (1 M, pH 8.5) was injected for 7 min to block any remaining activated groups. An average of 12,000 response units (RU) of capture antibody was immobilized on each flow cell.
Off-rate and kinetic binding experiments were performed at 25° C. using 1×HBS-EP+ buffer. Test and control antibodies were injected over the anti-Fc surface at concentrations of 5-10 μg/mL for 12 seconds at a flow rate of 10 μL/min on flow cells 2, 3 and 4, followed by a buffer wash for 30 seconds at the same flow rate. Kinetic characterization of antibody samples was carried out with a range of antigen concentrations from 1-100 nM and 1 injection of 0 nM antigen (for example, 100, 50, 25, 6.25, 1.56 and 0 nM). After capturing ligand (antibody) on the anti-Fc surface, the analyte (hROR1, Fz or Kr domains, Acro Biosystems, Delaware) was bound for 180 seconds, followed by a 600 second dissociation phase at a flow rate of 50 μL/min. Between each ligand capture and analyte binding cycle, regeneration was carried out using 2 injections of 10 mM Glycine pH 2.0 for 30 seconds at 30 μL/min, followed by a 30 second buffer wash step.
as §5
For anti-CD3-LC-containing IgGs that had detectable ROR1-binding in ELISA (1944-A07 and 1987-C05 variants), those antibodies were further tested for binding by surface plasmon resonance (SPR). Binding kinetics were assessed to the ROR1-frizzled domain (hROR1-Fz) or the ROR1-extracellular domain (hROR1) for 1944-A07 and 1987-C05 variants, respectively. Briefly, anti-ROR1 antibodies were captured via anti-human Fc polyclonal antibodies immobilized to a CM5 chip, and ROR1 recombinant proteins were flowed across the surface to assess binding kinetics. hROR1 or hROR1-Fz domain (Acro Biosystems, Delaware) binding was tested at 100, 50, 25, 6.25, 1.5625 nM. The data was fit with the Biacore™ T200 Evaluation software, using a 1-1 Langmuir binding model. KD (affinity, nM) was determined as a ratio of the kinetic rate constants calculated from the fits of the association and dissociation phases.

[7] = co-culture with PMBCS at E:T=10.1, 3 days

Molecule: CC[C@@]1(O)C(=O)OCc2c1cc1n(c2=O)Cc2c-1nc1cc(F)c(C)c3c1c2[C@@H](N)CC3 [exatecan]
- markers for immunogenic cell death (calreticulin translocation to the cell surface and HMGB1 release) [1]: induced markers for immunogenic cell death
- MCF-7 Span (ROR1 negative MCF7 cells): 91%
- cell killing of target cells (live target cell count) [2, 7]: induced potent cell killing of target cells
- monocyte activation (CD86 expression) [2, 7]: potently induced monocyte activation
- calreticulin on the cell surface ([2]; concomitant with reduced viability (FIG. 21C)): calreticulin could be detected on the cell surface
- NTERA-2 Span [3]: 98%

Molecule: O=C(c1cc(Cc2n[nH]c(=O)c3ccccc23)ccc1F)N1CCN(C(=O)C2CC2)CC1 [olaparib]
- tumor growth suppression, single agent (TNBC PDX tumors): moderate tumor growth suppression

Second part, led by results:

- kd1 [4]: 0.000645 s⁻¹
- ka1 ([4]; 1-1 Langmuir): 566000 M⁻¹ s⁻¹
B1: 1987-C05 HC w/hUCHT1 LC3: HC of lead antibody 1987-C05 co-expressed with LC "derived from anti-CD3 antibodies": hUCHT1-LC3 (antibody, V domains shown)
VH: EVQLVESGGGLVQPGGSLRLSCAASGFNISDYDIHWVRQAPGKGLEWVGGIDPDDGSTDYADSVKGRFTISADTSKNTAYLQMNSLRAEDTAVYYCARDYGVFDYWGQGTLVTVSS
VL: DIQMTQSPSTLSASVGDRVTITCRASQDIRNYLNWYQQKPGKAPKLLIYYTSRLHSGVPSRFSGSGSGTEYTLTISSLQPDDFATYYCQQGNTLPWTFGGGTKVEIK

- HCT 116-hROR1 Binding Bmax [6]: 15139 MFI
- Biacore human ROR1-Fz ka (human ROR1-Fz): 185000 M⁻¹ s⁻¹
- Biacore human ROR1-Fz kd (human ROR1-Fz): 0.000269 s⁻¹
B2: SRP2196-B07 (antibody, V domains shown)
VH: EVQLVESGGGLVQPGGSLRLSCAASGFNITGYHIHWVRQAPGEGLEWVGYISPNSGATYYADSVEGRFTISADTSKNTAYLQMHSLRAEDTAVYYCTRDSRRYVRGWDYWGQGTLVTVSS
VL: QAVVTQESALTTSPGETVTLTCRSSTGAVTTSNYANWVQEKPDHLFTGLIGGTNKRAPGVPARFSGSLIGDKAALTITGAQTEDEAIYFCALWYSNLWVFGGGTKLTVL
- TM2 [5]: 69 °C
